Consider 18 compounds from PubChem BioAssay AID328 (DTP/NCI, 2004).

Where “and” joins values, the source holds several entries; their conditions need not be identical. Identical values can stand only once. Inconclusive results and toxic doses are left out.

This test relates to BDF1 mice, P388 leukemia ip, median survival T/C. In words: NCI In Vivo Anticancer Drug Screen. Data for tumor model P388 Leukemia (intraperitoneal) in B6D2F1 (BDF1) mice. Conditions: endpoint: median survival time, higher = longer survival. The method, boiled down: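 Compound-treated tumour-bearing mice were compared with vehicle-treated controls. Survival was recorded, and the value is the treated-group measurement divided by the control-group measurement (T/C).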

[1] abbreviates: dose: 100.0 mg/kg/injection, schedule: Q04DX003 (ip), vehicle: saline.
Where [2] appears, read: dose: 200.0 mg/kg/injection, schedule: Q04DX003 (ip), vehicle: saline.
The mark [3] stands for this setting: dose: 400.0 mg/kg/injection, schedule: Q04DX003 (ip), vehicle: saline.
The mark [4] stands for this setting: dose: 100.0 mg/kg/injection, schedule: Q04DX003 (ip), vehicle: saline with Tween-80.
The mark [5] stands for this setting: dose: 400.0 mg/kg/injection, schedule: Q04DX003 (ip), vehicle: saline with Tween-80.
Where [6] appears, read: dose: 12.5 mg/kg/injection, schedule: Q01DX009 (ip), vehicle: saline with Tween-80.
[7] abbreviates: dose: 25.0 mg/kg/injection, schedule: Q01DX009 (ip), vehicle: saline with Tween-80.
[8] abbreviates: dose: 50.0 mg/kg/injection, schedule: Q01DX009 (ip), vehicle: saline with Tween-80.
[9] abbreviates: dose: 200.0 mg/kg/injection, schedule: Q04DX003 (ip), vehicle: saline with Tween-80.
Where [10] appears, read: dose: 12.5 mg/kg/injection, schedule: Q01DX001 (ip), vehicle: Klucel (hydroxypropylcellulose) (HPC).
[11] abbreviates: dose: 25.0 mg/kg/injection, schedule: Q01DX001 (ip), vehicle: Klucel (hydroxypropylcellulose) (HPC).
Setting [12] is: dose: 50.0 mg/kg/injection, schedule: Q01DX001 (ip), vehicle: Klucel (hydroxypropylcellulose) (HPC).

Regarding `O=C(NCc1cnccn1)Nc1ccccc1`, the T/C reads like this: (dose: 25.0 mg/kg/injection, schedule: Q04DX003 (ip), vehicle: saline) 104 % of control; (dose: 50.0 mg/kg/injection, schedule: Q04DX003 (ip), vehicle: saline) 103 % of control; under setting [1], 87 % of control; under setting [2], 100 % of control; under setting [3], 100 % of control.
As for `O=C1CN(C(=O)CN2C(=O)c3ccccc3C2=O)C2(CCCCC2)O1`, the T/C is, setting by setting: under setting [4], 100 % of control; under setting [5], 100 % of control.
As for `[N-]=[N+]=CC(=O)CCC(N)C(=O)O` (stereo not drawn), the T/C was 113 % of control (dose: 0.03 mg/kg/injection, schedule: Q01DX010 (ip), vehicle: saline); 170 % of control (dose: 0.1 mg/kg/injection, schedule: Q01DX010 (ip), vehicle: saline); 150 % of control (dose: 0.1 mg/kg/injection, schedule: Q01DX010 (ip), vehicle: water); 95 % of control and 100 % of control (dose: 0.2 mg/kg/injection, schedule: Q01DX010 (ip), vehicle: saline); 190 % of control (dose: 0.2 mg/kg/injection, schedule: Q01DX010 (ip), vehicle: water); 155 % of control (dose: 0.4 mg/kg/injection, schedule: Q01DX010 (ip), vehicle: water). Moreover, the T/C by setting is: (dose: 0.6 mg/kg/injection, schedule: Q01DX010 (ip), vehicle: water) 95 % of control and 120 % of control; (dose: 0.8 mg/kg/injection, schedule: Q01DX010 (ip), vehicle: water) 100 % of control; (dose: 2.5 mg/kg/injection, schedule: Q02DX005 (oral), vehicle: other) 163 % of control; (dose: 5.0 mg/kg/injection, schedule: Q02DX005 (oral), vehicle: other) 159 % of control; (dose: 10.0 mg/kg/injection, schedule: Q02DX005 (oral), vehicle: other) 186 % of control; (dose: 15.0 mg/kg/injection, schedule: Q02DX005 (oral), vehicle: other) 218 % of control. Moreover, under “dose: 20.0 mg/kg/injection, schedule: Q02DX005 (oral), vehicle: other”, the T/C is 86 % of control.
Consider `N#[N+]N=c1c(=NN=[N-])c(=O)c2ccccc2c1=O`, for which the T/C was 90 % of control (dose: 3.0 mg/kg/injection, schedule: Q01DX009 (ip), vehicle: saline with Tween-80); 87 % of control (dose: 6.0 mg/kg/injection, schedule: Q01DX009 (ip), vehicle: saline with Tween-80); 95 % of control (dose: 12.0 mg/kg/injection, schedule: Q01DX009 (ip), vehicle: saline with Tween-80).
Turning to `CN(C)c1ccc(C2NC(=S)NC3=C2CCCC3)cc1` (stereo not drawn), the T/C under setting [6] is 108 % of control; the T/C under setting [7] is 111 % of control; the T/C under setting [8] was 88 % of control and 109 % of control.
Turning to `O=C(Cn1cc(F)c(=O)[nH]c1=O)c1ccco1`, the T/C was 100 % of control (dose: 100.0 mg/kg/injection, schedule: Q01DX009 (ip), vehicle: saline); 111 % of control under setting [1]; 95 % of control (dose: 200.0 mg/kg/injection, schedule: Q01DX009 (ip), vehicle: saline); 105 % of control and 122 % of control under setting [2]; 100 % of control (dose: 400.0 mg/kg/injection, schedule: Q01DX009 (ip), vehicle: saline); 86 % of control under setting [3]. Also, under “dose: 600.0 mg/kg/injection, schedule: Q04DX003 (ip), vehicle: saline”, the T/C was 95 % of control.
Consider `O=[N+]([O-])c1cccc2c1CCCC2`, for which the T/C runs as follows: under setting [4], 110 % of control; under setting [9], 110 % of control; under setting [5], 120 % of control.
As to `O=C(O)O.[Mn]`, the T/C reads like this: (dose: 100.0 mg/kg/injection, schedule: Q01DX010 (ip), vehicle: water) 86 % of control and 93 % of control; (dose: 200.0 mg/kg/injection, schedule: Q01DX010 (ip), vehicle: water) 91 % of control; (dose: 400.0 mg/kg/injection, schedule: Q01DX010 (ip), vehicle: water) 77 % of control; (dose: 800.0 mg/kg/injection, schedule: Q01DX010 (ip), vehicle: water) 83 % of control and 86 % of control.
On to `CCOC(=O)CCSC(C)(C)C(=O)OCC`, for which the T/C runs as follows: (dose: 100.0 mg/kg/injection, schedule: Q01DX009 (ip), vehicle: Klucel (hydroxypropylcellulose) (HPC)) 100 % of control; (dose: 100.0 mg/kg/injection, schedule: Q04DX003 (ip), vehicle: Klucel (hydroxypropylcellulose) (HPC)) 104 % of control; (dose: 200.0 mg/kg/injection, schedule: Q01DX009 (ip), vehicle: Klucel (hydroxypropylcellulose) (HPC)) 105 % of control; (dose: 200.0 mg/kg/injection, schedule: Q04DX003 (ip), vehicle: Klucel (hydroxypropylcellulose) (HPC)) 104 % of control; (dose: 400.0 mg/kg/injection, schedule: Q01DX009 (ip), vehicle: Klucel (hydroxypropylcellulose) (HPC)) 105 % of control; (dose: 400.0 mg/kg/injection, schedule: Q04DX003 (ip), vehicle: Klucel (hydroxypropylcellulose) (HPC)) 100 % of control.
Turning to `CC1(C)C2CC=C(C[P+](c3ccccc3)(c3ccccc3)c3ccccc3)C1C2` (stereo not drawn), the T/C (dose: 3.3 mg/kg/injection, schedule: Q01DX009 (ip), vehicle: saline sonified) was 120 % of control.
As for `CC(C)(C)OC(=O)N1Cc2cc3ccccc3nc2C1`, the T/C is 100 % of control (dose: 50.0 mg/kg/injection, schedule: Q04DX003 (ip), vehicle: saline with Tween-80); 118 % of control under setting [4]; 109 % of control under setting [9].
Take `[O-]/C(CCCl)=N\[n+]1c2c(nc3ccccc31)-c1cccc3cccc-2c13`: the T/C was 102 % of control under setting [10], 100 % of control under setting [11] and 102 % of control under setting [12].
Consider `C=C(CC(N)=O)C(=O)O` (tested in a mixture with another compound), for which the T/C by setting is: (dose: 88.0 mg/kg/injection, schedule: Q01DX003 (ip), vehicle: saline) 109 % of control and 113 % of control; (dose: 177.0 mg/kg/injection, schedule: Q01DX003 (ip), vehicle: saline) 109 % of control and 122 % of control; (dose: 266.0 mg/kg/injection, schedule: Q01DX003 (ip), vehicle: saline) 109 % of control and 122 % of control; (dose: 400.0 mg/kg/injection, schedule: Q01DX003 (ip), vehicle: saline) 118 % of control and 122 % of control; (dose: 600.0 mg/kg/injection, schedule: Q01DX003 (ip), vehicle: saline) 118 % of control.
For `CC1(C(N)=O)CCCC2(C)c3ccccc3CCC12` (stereo not drawn), the T/C under setting [4] is 100 % of control, the T/C under setting [9] is 104 % of control and the T/C under setting [5] is 100 % of control.
As for `N/C(=N\N=C\c1ccc(-c2ccccc2)cc1)N[N+](=O)[O-]`, the T/C is 100 % of control (dose: 25.0 mg/kg/injection, schedule: Q01DX010 (ip), vehicle: carboxymethylcellulose (CMC)); 100 % of control (dose: 50.0 mg/kg/injection, schedule: Q01DX010 (ip), vehicle: carboxymethylcellulose (CMC)); 100 % of control (dose: 100.0 mg/kg/injection, schedule: Q01DX010 (ip), vehicle: carboxymethylcellulose (CMC)); 100 % of control (dose: 200.0 mg/kg/injection, schedule: Q01DX010 (ip), vehicle: carboxymethylcellulose (CMC)).
Take `O=C1C=CC(=O)C(c2ccccc2)=C1`: the T/C is 110 % of control under setting [10], 100 % of control under setting [11] and 100 % of control under setting [12].
As for `CN(C)c1ccc(N(C)C)c(C(O)(c2ccccc2)c2ccccc2)c1`, the T/C reads like this: under setting [6], 95 % of control; under setting [7], 93 % of control; under setting [8], 95 % of control.
For the compound `C[C@H]1C[C@@H]2[C@H]([C@@H](O)C[C@@]3(C)[C@H]2CC[C@]3(O)C(=O)CO)[C@@]2(C)C=CC(=O)C=C12`, the T/C reads like this: (dose: 200.0 mg/kg/injection, schedule: Q01DX009 (ip), vehicle: saline with Tween-80) 104 % of control; (dose: 400.0 mg/kg/injection, schedule: Q01DX009 (ip), vehicle: saline with Tween-80) 90 % of control.
